# How the values were obtained:
# mouse liver mitochondria [1] = settings: pyruvate as substrate, in words; Dröse et al. cited; cited from earlier work
# whole drosophilae larvae = test: Metabolic flux analysis (amperometry) of whole Drosophila larvae; type: in vivo
# From the text: Materials. Sodium phosphate monobasic (Sigma), sodium phosphate dibasic (Sigma), sodium chloride (Sigma), sodium pyruvate (Sigma), citric acid (Sigma), rotenone (Sigma), adenosine diphosphate (Sigma), sucrose (Sigma), Tris-EDTA (Sigma), Protease inhibitor cocktail (Sigma), deionized water (in house), and dimethylsulfoxide (Sigma) were used as received. All wild-type Drosophila larvae were hatched and grown on standard cornmeal-agar-molasses-yeast food at room temperature. Individual larvae were selected used for metabolic flux analysis. Mitochondria were isolated from normal mice liver. All steps were carried out at 4° C. Tissues were kept on ice. The liver tissue was homogenized in 3 volumes of Buffer A (0.33 M sucrose, 1.33 m M Tris-EDTA, pH 7.4 buffer containing protease inhibitors) using potter Dounce homogenizer. Once homogenized two more volumes of Buffer A were added and mixed before centrifugation at 1000 Xg for 10-15 mins. The supernatant was then recovered and centrifuged 2 times more to remove impurities. Finally, the supernatant was recovered and centrifuged at 15,000 Xg for 20 mins. The mitochondrial pellet recovered from the bottom of the centrifuge tube and suspended at a protein concentration of 35 mg/ml in phosphate buffered saline at pH 7.5. […]
# Metabolic flux analysis. […] When the experiment was ready to begin the sample was added to the electrode. […]
# mouse liver mitochondria [2] = test: Metabolic flux analysis (amperometry) of mouse liver mitochondria suspension; type: biochemical; settings: for attenuation of electron flux / inhibitory response (electron flux): in words; for Electron flux generated: rotenone present (1 μl of 1 mg/ml in DMSO), 120 seconds of measurement, 600 mV; for inhibitory response (electron flux): substrate not stated
# From the text: Materials. Sodium phosphate monobasic (Sigma), sodium phosphate dibasic (Sigma), sodium chloride (Sigma), sodium pyruvate (Sigma), citric acid (Sigma), rotenone (Sigma), adenosine diphosphate (Sigma), sucrose (Sigma), Tris-EDTA (Sigma), Protease inhibitor cocktail (Sigma), deionized water (in house), and dimethylsulfoxide (Sigma) were used as received. All wild-type Drosophila larvae were hatched and grown on standard cornmeal-agar-molasses-yeast food at room temperature. Individual larvae were selected used for metabolic flux analysis. Mitochondria were isolated from normal mice liver. All steps were carried out at 4° C. Tissues were kept on ice. The liver tissue was homogenized in 3 volumes of Buffer A (0.33 M sucrose, 1.33 m M Tris-EDTA, pH 7.4 buffer containing protease inhibitors) using potter Dounce homogenizer. Once homogenized two more volumes of Buffer A were added and mixed before centrifugation at 1000 Xg for 10-15 mins. The supernatant was then recovered and centrifuged 2 times more to remove impurities. Finally, the supernatant was recovered and centrifuged at 15,000 Xg for 20 mins. The mitochondrial pellet recovered from the bottom of the centrifuge tube and suspended at a protein concentration of 35 mg/ml in phosphate buffered saline at pH 7.5. Once the extraction was complete the mitochondria was stored at −80° C. in small aliquots for further use.
# Metabolic flux analysis. The electrochemical test setup consisted of a USTAT 200 Bipotentiostat coupled to a Dropsens SPE 110 screen printed electrode chip that included a carbon working electrode, a carbon counter electrode, and a silver reference electrode. The working substrate solution consisted of pH 7.40 10 mM phosphate buffer, 137 mM sodium chloride, 10 mM metabolic substrate, and 1 mg/ml adenosine diphosphate. The inhibitor solution consisted of 1 mg/ml rotenone in dimethyl sulfoxide. For uninhibited experiments pure dimethyl sulfoxide was used to maintain consistency. To the electrode 35 μl of substrate solution was dropped on top of the 3 electrode working area of the chip ensuring that all of the electrode surfaces were thoroughly wetted. To this drop, 1 μl of dimethyl sulfoxide was added that may or may not contain inhibitor. When the experiment was ready to begin the sample was added to the electrode. For mitochondrial suspension, 15 μL of the suspension was added to the working area of the chip. For the larvae, one larvae was placed into the drop of solution on to the working electrode. Amperometry was then performed with an applied potential of 600 mV with respect to the reference electrode for 120 seconds.
Molecule,inhibition of electron flux (mouse liver mitochondria [1]),"Electron flux generated (whole drosophilae larvae; glucose as substrate, rotenone present (1 μl of 1 mg/ml in DMSO), 120 seconds of measurement, 600 mV)","attenuation of metabolic flux (whole drosophilae larvae; glucose solution, in words)",attenuation of electron flux (mouse liver mitochondria [2]; citrate as metabolic substrate),Electron flux generated (mouse liver mitochondria [2]; citrate as substrate),attenuation of electron flux (mouse liver mitochondria [2]; pyruvate as metabolic substrate),Electron flux generated (mouse liver mitochondria [2]; pyruvate as substrate),inhibitory response (electron flux) (mouse liver mitochondria [2])
CC1=NS(=O)(=O)c2cc(Cl)ccc2N1 [diazoxide],partial inhibition,–,–,–,–,–,–,–
C=C(C)[C@H]1Cc2c(ccc3c2O[C@@H]2COc4cc(OC)c(OC)cc4[C@@H]2C3=O)O1 [rotenone],–,3.302×10^−4 micromoles of electrons,diminished,did not exhibit significant inhibition,1.536×10^−4 micromoles of electrons,diminished,1.435×10^−4 micromoles of electrons,strong inhibitory responses
antimycin,–,–,–,–,–,–,–,strong inhibitory responses

# Source: patent US20180321220A1, “UNIVERSAL BIOELECTROCHEMICAL METABOLIC FLUX MEASUREMENT SYSTEM AND METHODS OF MAKING AND USING THE SAME” (Saint Louis University, priority 2015, published 2018)
